In patent US12478628B2, “Germ cell nuclear factor ligands and methods of use thereof” (Saint Louis University, priority 2020, dated 2025):
Substitutions are numbered along the chain they refer to.

Key:
Type in all cases: binding
[1] = target: T1, LRH-1 (NR5A2) LBD (Homo sapiens, UniProt O00482); experiment: DSF specificity assay, LRH-1
T1 construct: human LRH-1 (NR5A2) LBD (residues 291-541); hexahistidine tag with 3C protease site; made in house; host or cells: E. coli BL(21) DE3
Experimental: (§1) Protein Expression and Purification. Human GCNF (NR6A1) LBD (residues 248-480) and mutants F284A/F361A, human LRH-1 (NR5A2) LBD (residues 291-541), human RXRα LBD (residues 223-462), human COUP-TF I LBD (residues 184-410) and human SF-1 LBD (residues 219-461) were subcloned in pET45b(+) plasmid (Novagen) were expressed in E. coli BL(21) DE3 cells in terrific broth with 0.1 mg/mL ampicillin as 3C protease-cleavable hexahistidine-tagged fusion proteins. The bacterial culture was grown at 37° C. to an optical density of 0.8 to 1.0 at 600 nm. Protein expression was induced by adding 1 mM IPTG and was allowed to proceed for 14 h at 22° C. […]
(§2) DSF Assay. […] A total of 450 compounds (Life Chemicals) previously selected from a nuclear-receptor-biased library targeting REV-ERB were analyzed. Thermal stability was assessed on a Quantstudio 6 instrument (Biosystems) by ramping the temperature from 25° C. to 95° C. at 0.05° C./s and protein melt shifts were subsequently quantified by Boltzmann-derived melting temperature (Tm) using the Protein Thermal Shift (ThermoFisher) software. […]

[2] = target: T2, GCNF LBD Y336F (Homo sapiens, UniProt Q15406, Y336F); experiment: DSF of GCNF LBD mutant Y336F; details: 5 mM protein with 20 mM ligand as printed
T2 construct: Human GCNF (NR6A1) LBD (residues 248-480); hexahistidine tag with 3C protease site; made in house; host or cells: E. coli BL(21) DE3
T2 sequence (Q15406 248-480 Y336F): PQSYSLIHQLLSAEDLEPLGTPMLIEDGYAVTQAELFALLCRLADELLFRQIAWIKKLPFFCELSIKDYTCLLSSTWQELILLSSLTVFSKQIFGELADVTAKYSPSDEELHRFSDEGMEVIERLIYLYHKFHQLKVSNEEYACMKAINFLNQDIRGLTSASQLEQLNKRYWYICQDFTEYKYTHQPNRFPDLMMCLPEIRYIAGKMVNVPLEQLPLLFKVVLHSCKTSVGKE
Experimental: DSF Assay. GCNF LBD (5 μM) were mixed with 1× Sypro orange (Invitrogen) in DSF buffer (50 mM HEPES, 50 mM KCl, 5 mM TCEP, 0.5 mM EDTA, pH 7.5). […] Ten microliters (10 μL)×5 replicates for each sample were plated on 384-well PCR microplate. No protein control and no ligand references were also run simultaneously in 5 replicates on the same plate. A total of 450 compounds (Life Chemicals) previously selected from a nuclear-receptor-biased library targeting REV-ERB were analyzed. Thermal stability was assessed on a Quantstudio 6 instrument (Biosystems) by ramping the temperature from 25° C. to 95° C. at 0.05° C./s and protein melt shifts were subsequently quantified by Boltzmann-derived melting temperature (Tm) using the Protein Thermal Shift (ThermoFisher) software. Positive hits were identified when a thermal shift (ΔTm) of at least 2° C. was observed.

[3] = target: T3, GCNF LBD F361A (Homo sapiens, UniProt Q15406, F361A); experiment: DSF of GCNF LBD mutant F361A; details: 20 μM ligand
T3 construct: Human GCNF (NR6A1) LBD (residues 248-480) and mutants F284A/F361A; hexahistidine tag with 3C protease site; made in house; host or cells: E. coli BL(21) DE3
T3 sequence (Q15406 248-480 F361A): T2 sequence (Q15406 248-480 Y336F) with F89Y, F114A
Experimental: as §1, §2

[4] = target: T4, RXRα LBD (Homo sapiens, UniProt P19793); experiment: DSF specificity assay, RXRα
T4 construct: human RXRα LBD (residues 223-462); hexahistidine tag with 3C protease site; made in house; host or cells: E. coli BL(21) DE3
T4 sequence (P19793 223-462): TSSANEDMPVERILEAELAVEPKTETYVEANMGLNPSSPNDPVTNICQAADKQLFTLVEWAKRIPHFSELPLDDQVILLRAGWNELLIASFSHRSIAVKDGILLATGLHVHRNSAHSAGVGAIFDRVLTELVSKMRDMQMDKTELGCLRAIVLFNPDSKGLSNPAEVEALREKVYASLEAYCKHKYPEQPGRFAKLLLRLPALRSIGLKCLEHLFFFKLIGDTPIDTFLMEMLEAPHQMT
Experimental: as §1, §2

T1 sequence (O00482 291-541): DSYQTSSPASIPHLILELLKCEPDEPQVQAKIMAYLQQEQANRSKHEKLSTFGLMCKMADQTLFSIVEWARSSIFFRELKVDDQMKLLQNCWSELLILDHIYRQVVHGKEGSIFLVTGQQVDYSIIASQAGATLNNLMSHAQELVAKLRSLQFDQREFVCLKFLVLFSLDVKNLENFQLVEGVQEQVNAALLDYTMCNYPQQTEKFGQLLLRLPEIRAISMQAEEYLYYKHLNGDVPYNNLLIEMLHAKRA

SMILES	change of Tm of LRH-1 LBD [1]	effect of substitution Y336F on ligand binding (DSF) [2]	effect of mutation F361A on ΔTm compared to WT [3]	change of Tm of RXRα LBD [4]
Cc1ccc(-n2ncc3c(N4CCOCC4)nc(NCc4ccco4)nc32)cc1 [Ligand 34, N-[(furan-2-yl)methyl]-1-(4-methylphenyl)-4-(morpholin-4-yl)-1H-pyrazolo[3,4-d]pyrimidin-6-amine]	did not significantly change	substantially affect the binding	substantially decreased the ΔTm	did not significantly change
O=C(Cn1cc(S(=O)(=O)c2ccccc2)c2ccccc21)N1CCc2ccccc21 [Ligand 80, 2-[3-(benzenesulfonyl)-1H-indol-1-yl]-1-(2,3-dihydro-1H-indol-1-yl)ethan-1-one]	did not significantly change	only F361A significantly affect the binding of 80	completely abrogated the interaction	did not significantly change
